According to PubChem BioAssay AID1918930 (Molecular Pharmacology Branch, DTP, NCI, 2023):

System: 233499-124-R-J3-PDC complex spheroid viability, % test/control
Assay: Anticancer human tumor 233499-124-R-J3-PDC patient-derived colon adenocarcinoma cell line growth inhibition
Details: for IC50: curve of first compound; for viability, T/C: stronger effect = lower value
Excerpt: Multicellular complex tumor spheroid response to LSD1 Inhibitor Iadademstat in combination with a variety of drugs and investigational agents in selected tumor cell lines
The current study was undertaken to assess response to LSD1 inhibitors in combination with standard-of-care drugs and investigational agents in solid tumor complex spheroid models as well as in the K-562 leukemia. Complex spheroids include a stromal component modeled by human endothelial cells (HUVEC) and fibroblasts modeled by human mesenchymal stem cells (MSCs). The concentration ranges selected for each drug and investigational agent were based upon clinically achievable concentrations if the clinical Cmax of the agent was known.
Compounds. The drugs and investigational agents used in this study are listed on Table 1. All of the agents used, including staurosporine (NSC755774) and gemcitabine (NSC613327), were obtained from the Developmental Therapeutics Program, NCI. FDA-approved anticancer drugs are available from the NCI at http://dtp.nci.nih.gov/branches/dscb/oncology_drugset_explanation.html. Drugs and investigational agents were >95% pure by proton nuclear magnetic resonance (NMR) and liquid chromatography/mass spectrometry (LC/MS). Stock solutions were prepared at 400x in DMSO, stored at -70 degrees C, and diluted in fresh medium prior to their use. The final concentration of DMSO in cell culture wells never exceeded 0.25% (v/v). The FDA-approved anticancer drug set is available from the Developmental Therapeutics Program at https://dtp.cancer.gov/organization/dscb/obtaining/available_plates.htm. All drugs and investigational agents were tested over a range starting from a high concentration at or near the clinical Cmax and decreasing in half-log increments. If the clinical Cmax for an agent had not been determined, the highest concentration tested was 10 microM.
Cell Lines. The patient-derived cancer cell (PDC) lines: 292921-168-R-J2-PDC, K24384-001-R-PDC, and 521955-158-R2-J5-PDC pancreatic carcinomas, 556581-035-R-J1 ovarian carcinoma, 324938-238-R-J1-PDC, 855422-203-R-J1-PDC and 883617-216-R-J1-PDC urothelial bladder carcinomas, 743489-274-T-PDC renal cell carcinoma, 138582-R-J1 Merkel cell tumor, K60290-347-R-J1 and K57222-313-R-J1-PDC glioblastomas, 653999-131-R-J2-PDC, LG0703-F948-PDC, and 349418-098-R-PDC non-small cell lung carcinomas, 885512-296-R-J2-PDC, 171881-019-R-J1-PDC breast carcinomas and 186277-243-T-J2-PDC and 233499-124-R-J2-PDC colon carcinomas were obtained from the NCI Patient-Derived Models Repository (PDMR, https://pdmr.cancer.gov). The established cell lines NCI/ADR-RES (RRID:CVCL_14520 and OVCAR-5 (RRID:CVCL_1628) ovarian carcinomas, 786-O (RRID:CVCL_1051) and A498 (RRID:CVCL_A498) renal cell carcinoma, NCI-H211 (ATCC, cat. CRL-5824; RRID:CVCL_1529), NCI-H196 (ATCC, cat. CRL-5823, RRID:CVCL_1509), SW 1271 (ATCC, cat. CRL-2177, RRID:CVCL_1716) and NCI-H1876 (ATCC, cat. CRL-5902, RRID:CVCL_1503) small cell lung carcinomas, MDA-MB-231 (RRID:CVCL_0062) and MDA-MB-468 (RRID:CVCL_0419)breast carcinomas (10-12). Pooled donor human umbilical vein endothelial cells (HUVEC, Lonza, cat. CC-2519) and human mesenchymal stem cells (hMSC, Lonza, cat. PT-2501) were purchased from Lonza (Walkersville, MD).
Cell Culture. All cells were maintained in an incubator at 37 degrees C and 5% CO2 with 95% humidity. The PDC lines were cultured according to standard operating procedures established by the NCI PDMR (https://pdmr.cancer.gov). Briefly all PDCs were thawed and cultured in Matrigel-coated flasks prepared with a working solution of 1X Ham's F-12 nutrient mix, without supplementation (Invitrogen, Waltham, MA, cat. 11765054), 100 U/mL penicillin-streptomycin (Invitrogen, cat. 15140122), and 2.5% Matrigel (Corning Inc., Corning, NY, cat. 354248) for the first three passages. […]

[1] = second compound 0.1 µM, first compound 0.000949 µM
[2] = second compound 0.1 µM, first compound 0.003 µM
[3] = second compound 0.1 µM, first compound 0.00949 µM
[4] = second compound 0.1 µM, first compound 0.03 µM
[5] = second compound 0.1 µM, first compound 0.0949 µM
[6] = second compound 0.1 µM, first compound 0.3 µM
[7] = second compound 0.316 µM, first compound 0.000949 µM
[8] = second compound 0.316 µM, first compound 0.003 µM
[9] = second compound 0.316 µM, first compound 0.00949 µM
[10] = second compound 0.316 µM, first compound 0.03 µM
[11] = second compound 0.316 µM, first compound 0.0949 µM
[12] = second compound 0.316 µM, first compound 0.3 µM
[13] = second compound 1 µM, first compound 0.000949 µM
[14] = second compound 1 µM, first compound 0.003 µM
[15] = second compound 1 µM, first compound 0.00949 µM
[16] = second compound 1 µM, first compound 0.03 µM
[17] = second compound 1 µM, first compound 0.0949 µM
[18] = second compound 1 µM, first compound 0.3 µM
[19] = second compound 3.16 µM, first compound 0.000949 µM
[20] = second compound 3.16 µM, first compound 0.003 µM
[21] = second compound 3.16 µM, first compound 0.00949 µM
[22] = second compound 3.16 µM, first compound 0.03 µM
[23] = second compound 3.16 µM, first compound 0.0949 µM
[24] = second compound 3.16 µM, first compound 0.3 µM
[25] = second compound 10 µM, first compound 0.000949 µM
[26] = second compound 10 µM, first compound 0.003 µM
[27] = second compound 10 µM, first compound 0.00949 µM
[28] = second compound 10 µM, first compound 0.03 µM
[29] = second compound 10 µM, first compound 0.0949 µM
[30] = second compound 10 µM, first compound 0.3 µM
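Note: spheroids exposed to agents for one week before readout.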

CCc1c2c(nc3ccc(O)cc13)-c1cc3c(c(=O)n1C2)COC(=O)[C@]3(O)CC + NC1CC1c1ccc(-c2cccc(O)c2)cc1
IC50 (second compound 0.1 µM): 25.6 nM
IC50 (second compound 0.316 µM): 22.6 nM
IC50 (second compound 1 µM): 24.5 nM
IC50 (second compound 3.16 µM): 27.6 nM
IC50 (second compound 10 µM): 50.3 nM
viability, T/C [1]: 88%
viability, T/C [2]: 122%
viability, T/C [3]: 90.8%
viability, T/C [4]: 44.2%
viability, T/C [5]: 27.7%
viability, T/C [6]: 29.5%
viability, T/C [7]: 103%
viability, T/C [8]: 112%
viability, T/C [9]: 88.1%
viability, T/C [10]: 38.3%
viability, T/C [11]: 25.2%
viability, T/C [12]: 30.3%
viability, T/C [13]: 70.4%
viability, T/C [14]: 112%
viability, T/C [15]: 101%
viability, T/C [16]: 40.6%
viability, T/C [17]: 19.6%
viability, T/C [18]: 30.4%
viability, T/C [19]: 77.6%
viability, T/C [20]: 109%
viability, T/C [21]: 98.6%
viability, T/C [22]: 46.4%
viability, T/C [23]: 31.5%
viability, T/C [24]: 24.6%
viability, T/C [25]: 65.1%
viability, T/C [26]: 88.5%
viability, T/C [27]: 105%
viability, T/C [28]: 59.7%
viability, T/C [29]: 43.8%
viability, T/C [30]: 32.4%

Nc1ccn(C2OC(CO)C(O)C2(F)F)c(=O)n1 (stereo not given) + NC1CC1c1ccc(-c2cccc(O)c2)cc1
IC50 (second compound 0.1 µM): 87.3 nM
IC50 (second compound 0.316 µM): 73.4 nM
IC50 (second compound 1 µM): 32.8 nM
IC50 (second compound 3.16 µM): 55.8 nM
IC50 (second compound 10 µM): 34.8 nM
viability, T/C [1]: 111%
viability, T/C [2]: 97.9%
viability, T/C [3]: 104%
viability, T/C [4]: 72.4%
viability, T/C [5]: 49.4%
viability, T/C [6]: 45.2%
viability, T/C [7]: 85.1%
viability, T/C [8]: 96.1%
viability, T/C [9]: 75.3%
viability, T/C [10]: 69.9%
viability, T/C [11]: 41%
viability, T/C [12]: 41.7%
viability, T/C [13]: 96.1%
viability, T/C [14]: 84.7%
viability, T/C [15]: 78.1%
viability, T/C [16]: 49.2%
viability, T/C [17]: 41.2%
viability, T/C [18]: 38.7%
viability, T/C [19]: 92.3%
viability, T/C [20]: 95.6%
viability, T/C [21]: 72.7%
viability, T/C [22]: 60.1%
viability, T/C [23]: 39.1%
viability, T/C [24]: 46.2%
viability, T/C [25]: 83.5%
viability, T/C [26]: 69.4%
viability, T/C [27]: 74.8%
viability, T/C [28]: 52.5%
viability, T/C [29]: 32.8%
viability, T/C [30]: 35.1%

O=C(c1cc(Cc2n[nH]c(=O)c3ccccc23)ccc1F)N1CCN(C(=O)C2CC2)CC1 + NC1CC1c1ccc(-c2cccc(O)c2)cc1
IC50 (second compound 0.1 µM): > 10000 nM
IC50 (second compound 0.316 µM): > 10000 nM
IC50 (second compound 1 µM): > 10000 nM
IC50 (second compound 3.16 µM): > 10000 nM
IC50 (second compound 10 µM): > 10000 nM
viability, T/C (second compound 0.1 µM, first compound 0.0316 µM): 96.9%
viability, T/C (second compound 0.1 µM, first compound 0.1 µM): 92.2%
viability, T/C (second compound 0.1 µM, first compound 0.316 µM): 98.5%
viability, T/C (second compound 0.1 µM, first compound 1 µM): 97.8%
viability, T/C (second compound 0.1 µM, first compound 3.16 µM): 100%
viability, T/C (second compound 0.1 µM, first compound 10 µM): 73.2%
viability, T/C (second compound 0.316 µM, first compound 0.0316 µM): 94.2%
viability, T/C (second compound 0.316 µM, first compound 0.1 µM): 106%
viability, T/C (second compound 0.316 µM, first compound 0.316 µM): 106%
viability, T/C (second compound 0.316 µM, first compound 1 µM): 87.2%
viability, T/C (second compound 0.316 µM, first compound 3.16 µM): 91.1%
viability, T/C (second compound 0.316 µM, first compound 10 µM): 79.3%
viability, T/C (second compound 1 µM, first compound 0.0316 µM): 78.3%
viability, T/C (second compound 1 µM, first compound 0.1 µM): 91.6%
viability, T/C (second compound 1 µM, first compound 0.316 µM): 91.6%
viability, T/C (second compound 1 µM, first compound 1 µM): 79%
viability, T/C (second compound 1 µM, first compound 3.16 µM): 73.4%
viability, T/C (second compound 1 µM, first compound 10 µM): 68.5%
viability, T/C (second compound 3.16 µM, first compound 0.0316 µM): 87.6%
viability, T/C (second compound 3.16 µM, first compound 0.1 µM): 83.4%
viability, T/C (second compound 3.16 µM, first compound 0.316 µM): 71.6%
viability, T/C (second compound 3.16 µM, first compound 1 µM): 84.6%
viability, T/C (second compound 3.16 µM, first compound 3.16 µM): 66.5%
viability, T/C (second compound 3.16 µM, first compound 10 µM): 63%
viability, T/C (second compound 10 µM, first compound 0.0316 µM): 77.6%
viability, T/C (second compound 10 µM, first compound 0.1 µM): 75.1%
viability, T/C (second compound 10 µM, first compound 0.316 µM): 71.9%
viability, T/C (second compound 10 µM, first compound 1 µM): 68%
viability, T/C (second compound 10 µM, first compound 3.16 µM): 58.6%
viability, T/C (second compound 10 µM, first compound 10 µM): 62.7%
